The test system of one series is TNF-α. Briefly: TNF-α level by qRT-PCR in HCT-116 cells. The note with it: for TNF-α (% inhibition): HCT-116 cells, 24 hours, at IC50 against HCT-116 (8g 24 nM, 8h 23 nM), qRT-PCR.
The next series has as its target VEGFR-2 (Homo sapiens, UniProt P35968). In words: VEGFR-2 inhibitory assay.
In a further series the test system is Bax. Briefly: Apoptotic markers assay: Bax level in HCT-116 cells. The series is classed as cell-based, human. As to conditions: for Bax fold change: relative to untreated control.
For a further series, the system named is HCT-116. In words: Antiproliferative assay (MTT). The format is cell-based. The note with it: Homo sapiens, HCT-116 colorectal, mean of three experiments ± SD. From the text:
(§1) The MTT assay[53,54] was employed to evaluate the antiproliferative efficacy of new compounds 8a–l against two human cancer cell lines: MCF-7 (breast) and HCT-116 (colorectal carcinoma). Erlotinib was employed as the benchmark. Check Appendix A for additional experimental information.
(§2) The MTT assay[53,54] was used to evaluate the antiproliferative properties of novel compounds 8a–l against two human cancer cell lines: MCF-7 (breast cancer) and HCT-116 (colorectal carcinoma). Erlotinib was utilized as the reference. […] The provided values represent the means of three experiments ± standard deviation (SD). […]
(§3) of Ham's F-12 medium/ Dulbecco's modified Eagle's medium (DMEM) (1:1) supplemented with 10% foetal calf serum (GIBCO, UK), 2 mM glutamine, insulin (10 μg/mL), hydrocortisone (500 ng/mL) and epidermal growth factor (20 ng/mL). Trypsin ethylenediamine tetra acetic acid (EDTA) was used to passage the cells after every 2-3 days. 96-well flat-bottomed cell culture plates were used to seed the cells at a density of 10^4 cells mL-1. The medium was aspirated from all the wells of culture plates after 24 h followed by the addition of synthesized compounds (in 200 μL medium to yield a final concentration of 0.1% (v/v) dimethyl sulfoxide) into individual wells of the plates.
(§4) Four wells were designated to a single compound. The plates were allowed to incubate at 37°C for 96 h. Afterwards, the medium was aspirated and 3-[4,5-dimethylthiazol-2-yl]-2,5-diphenyltetrazolium bromide (MTT) (0.4 mg/mL) in medium was added to each well and subsequently incubated for 3 h. The medium was aspirated and 150 μL dimethyl sulfoxide (DMSO) was added to each well. The plates were vortexed followed by the measurement of absorbance at 540 nm on a microplate reader. […]
(§5) All cell lines […]
(§6) were obtained from ATCC (American Type Cell Culture). […]
(§7) μM), benzamidine HCl (16 μg/mL), NaCl (10 mM),leupeptin (10 μg/mL) and pepstatin (10 μg/mL) at 0°C for 20 min at pH 7.4, followed by centrifugation for 20 min. To eliminate the nonspecifically bound material, a Ni-NTA super flow packed column was (1 picture or pasted object on this page, not shown here)

The next series relates to MCF-7. Briefly: Antiproliferative assay (MTT). The format is cell-based. As to conditions: Homo sapiens, MCF7, MCF-7 breast, mean of three experiments ± SD.
Description: as §1, §2, §3, §4, §5, §6, §7

For a further series, the system named is Caspase-9. In words: Caspase-9 activation assay in HCT-116 cells. The note with it: for Caspase-9 fold change: relative to control.
The next series relates to p53. Briefly: Apoptotic markers assay: p53 level in HCT-116 cells. The format is cell-based, human. From the text:
Appendix A gives more details.
Apoptosis dysregulation is a hallmark of human cancer, resulting in uncontrolled proliferation, insufficient response to treatments, and the formation of drug-resistant cells.[60] As a result, current anticancer therapies are recognized for their ability to induce apoptosis in cancer cells via both extrinsic and intrinsic routes.[56]
The ability of p53 overexpression to trigger apoptosis may clarify the common inactivation of p53 enzymes by cancer cells during transformation.[63]

Series [1] is described as follows: Cell viability assay (MTT) on normal mammary epithelial cells. The series is classed as cell-based. The note with it: human, MCF-10A normal mammary gland epithelial cells, four days. As for the experimental part:
This test assesses the safety of new compounds 8a–l on normal cell lines. The efficacy of 8a–l was tested on the normal human mammary gland epithelial cell line MCF-10A. MCF-10A cells were incubated with 50 µM of each tested compound for four days. Cell viability was assessed using the MTT assay.[11,48] Appendix A has extra experimental details.
This assay evaluates the impact of novel compounds 8a–l on normal cell lines to determine their safety, an essential consideration in drug discovery. The efficacy of the examined compounds was evaluated utilizing the normal human mammary gland epithelial cell line MCF-10A. […]
4.2. Biological evaluation
4.2.1 Cell Viability assay (MTT assay)
as §3, with “MTT assay was performed to investigate the effect of the synthesized compounds on mammary epithelial cells (MCF-10A). The cells were propagated in medium consisting of Ham's” for “of Ham's”
as §4

The mark [2] stands for this setting: Homo sapiens, HCT-116, read-out: TNF-α (% inhibition), HCT-116 cells, 24 hours, at IC50 against HCT-116 (8g 24 nM, 8h 23 nM), qRT-PCR.

VEGFR-2, sequence (P35968 20-1356): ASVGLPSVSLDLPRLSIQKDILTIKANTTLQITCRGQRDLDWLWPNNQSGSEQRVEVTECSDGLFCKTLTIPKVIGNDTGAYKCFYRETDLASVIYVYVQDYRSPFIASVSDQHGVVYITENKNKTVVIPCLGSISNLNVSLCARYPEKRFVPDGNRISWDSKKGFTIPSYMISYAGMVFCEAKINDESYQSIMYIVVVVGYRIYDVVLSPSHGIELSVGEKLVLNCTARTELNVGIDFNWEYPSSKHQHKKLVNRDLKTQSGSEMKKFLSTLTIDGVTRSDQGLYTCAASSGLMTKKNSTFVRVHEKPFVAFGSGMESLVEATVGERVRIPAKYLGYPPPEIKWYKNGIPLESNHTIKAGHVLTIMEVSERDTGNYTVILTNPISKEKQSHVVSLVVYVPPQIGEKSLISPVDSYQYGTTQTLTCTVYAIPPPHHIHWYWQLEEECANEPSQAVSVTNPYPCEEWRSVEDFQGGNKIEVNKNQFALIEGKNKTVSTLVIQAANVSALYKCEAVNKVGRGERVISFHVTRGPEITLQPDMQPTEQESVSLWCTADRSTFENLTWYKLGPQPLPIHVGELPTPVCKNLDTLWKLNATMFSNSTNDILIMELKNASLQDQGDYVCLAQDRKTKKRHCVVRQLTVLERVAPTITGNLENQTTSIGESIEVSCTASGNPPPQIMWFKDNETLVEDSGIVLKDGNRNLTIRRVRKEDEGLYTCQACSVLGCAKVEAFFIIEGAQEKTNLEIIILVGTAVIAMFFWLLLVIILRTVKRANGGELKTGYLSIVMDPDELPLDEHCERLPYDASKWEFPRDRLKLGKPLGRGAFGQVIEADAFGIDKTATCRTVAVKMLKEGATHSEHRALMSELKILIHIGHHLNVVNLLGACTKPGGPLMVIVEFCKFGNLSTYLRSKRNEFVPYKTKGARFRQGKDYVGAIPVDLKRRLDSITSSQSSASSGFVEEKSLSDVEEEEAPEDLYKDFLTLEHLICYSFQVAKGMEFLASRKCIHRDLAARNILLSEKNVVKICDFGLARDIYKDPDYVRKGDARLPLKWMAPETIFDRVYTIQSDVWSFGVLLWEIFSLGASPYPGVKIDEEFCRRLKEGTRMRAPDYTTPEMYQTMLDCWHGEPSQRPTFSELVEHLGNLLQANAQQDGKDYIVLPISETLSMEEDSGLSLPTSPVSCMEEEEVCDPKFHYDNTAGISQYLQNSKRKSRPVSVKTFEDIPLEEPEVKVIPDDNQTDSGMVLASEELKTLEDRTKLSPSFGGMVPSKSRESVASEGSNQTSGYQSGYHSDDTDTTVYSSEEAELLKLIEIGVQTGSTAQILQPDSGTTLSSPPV
Description for TNF-α: The reference molecule was dexamethasone, a drug that uniformly regulates the immune system.
TNF-α and IL6 a determination
determined using of q RT-PCR technique. By using q RTPCR (reference), the amount
treated HCT-116 cells was measured (at the IC50 concentrations). Total RNA was
accordance with the manufacturer's instructions (RNeasy mini kit, Qiagen, Germany).
Following RNA extraction, the Revert Aid First Strand cDNA Synthesis kit (Thermo
Scientific, USA) was used to create cDNA. The Rotor-Gene Q real-time PCR thermal
cycler was used to amplify target cDNA for apoptosis markers and GAPDH [as a
normalization (housekeeping) gene] using one step RT-PCR SYBR® Green kit Master
Mix (Bio-Rad Laboratories, USA). Two microliters of cDNA were combined with one
microliter of forward primer, one microliter of reverse primer, ten microliters of master
mixture, and twenty microliters of nuclease-free water to complete the reaction volume.
Every experiment was carried out three times.
Quantitative Real Time Reverse-Transcriptase PCR (qRT-PCR) primer sequences
TNF-α : R 5'- [sequence] -3'.
IL6 : R 5'- [sequence] -3
GAPDH : R 5’- [sequence]-3’
Description for VEGFR-2: Prepare all the solutions using autoclaved, deionized water and analytical grade
reagents. Prepare and store all the reagents at room temperature (unless indicated
EDTA, adjust the pH to 8.0 using NaOH solution, add 5 mL ultra-pure water; 1×Kinase
solution (1 M), 1 mL DTT, 50 μL tween-20, 450 mL ultrapure water, adjust pH to 7.5
and constant volume to 500 mL using ultrapure water; 4×Stop solution (40 mM): Mix
0.8 mL of the foregoing EDTA solution, 1 mL 10×Detection Buffer and 8.2 mL ultra-
pure water; 1×Detection Buffer: Mix 1 mL 10×Detection Buffer with 9 mL water;
before use). The assays used an ULight-labeled peptide substrate and a Europium-
W1024-labeled antiphosphotyrosine antibody. The VEGFR-2 was purchased from
Carna Biosciences, Inc. (New York, USA). The 384-well plates were obtained from
PerkinElmer. Compounds were dissolved in DMSO and diluted to 11 concentrations at
2×VEGFR-2 kinase solution (0.5 nM) was added to 384-well plates homogeneous
mixing and pre-reaction at room temperature for 30 min. […]
well plate, The final concentration of DMSO in the mixing system was 4%. […] The plate was read using an Envision plate reader. The inhibition rate (%) = (positive well reading-compound well reading)/(positive well reading-negative well reading)×100. The corresponding IC50 values were calculated using GraphPad Prism 5.0.

Consider `CCS(=O)(=O)c1ccc2[nH]nc(C(=O)NNC(=O)NC34CC5CC(CC(C5)C3)C4)c2c1` [Compound 8g, 2-(5-(Ethylsulfonyl)-1H-indazole-3-carbonyl)-N-(adamantan-1-yl)hydrazine-1-carboxamide], for which the “TNF-α (% inhibition)” value with TNF-α turned out to be 79%. For the same compound, in the series on TNF-α (setting [2]), the inhibition at 0.024 µM is ~80%. For the same compound, on VEGFR-2, the IC50 came out at 16 ± 1 nM. Moreover, in the series with Bax, the Bax level is 490 ± 2 pg/mL and the Bax fold change was found to be 8.20 fold. The compound also displayed an IC50 in the series on HCT-116 of 24 ± 1 nM. In the series on MCF-7, it took 28 ± 1 nM to reach half-maximal inhibition (IC50). For the same compound, in the series with Caspase-9, the “Caspase-9 Conc.” value is 21 ± 3 ng/mL and the Caspase-9 fold change worked out at 21 fold. In the series on p53, this compound came in with a p53 level of 320 ± 2 pg/mL. The compound also came in with a viability at 4 days, 50 µM in series [1] of 91%.

On to `CCS(=O)(=O)c1ccc2[nH]nc(C(=O)NNC(=O)NC3CCCCCC3)c2c1` [Compound 8h, 2-(5-(Ethylsulfonyl)-1H-indazole-3-carbonyl)-N-(cycloheptyl)hydrazine-1-carboxamide], for which the “TNF-α (% inhibition)” value in the series with TNF-α came to 82%. Moreover, in the series with TNF-α (setting [2]), the inhibition at 0.023 µM was ~80%. Further, the IC50 amounted to 12 ± 1 nM against VEGFR-2, 23 ± 1 nM in the series on HCT-116 and 25 ± 1 nM in the series with MCF-7. Besides, the Bax level in the series on Bax amounted to 510 ± 3 pg/mL. Further, in the series with Bax, the Bax fold change is reported as 8.50 fold. Also, the “Caspase-9 Conc.” value in the series on Caspase-9 was 23 ± 1 ng/mL. The same compound showed a Caspase-9 fold change in the series on Caspase-9 of 23 fold. Besides, the p53 level with p53 worked out at 355 ± 2 pg/mL. Besides, the viability at 4 days, 50 µM in series [1] was determined as 90%.

As a reminder, the inhibition is the change of the read-out against control, counted positive when it falls. By IC50 is commonly meant the point on the concentration scale where inhibition reaches its midpoint. Read a low IC50 as higher potency. For orientation: viability means a read-out of living cells in per cent, often relative to untreated cells. A lower viability goes with a greater loss of cells.

The values above are taken from publication PMC12679585, “Design, synthesis, and characterization of novel 5-ethylsulfonyl-indazole-3-carboxamides as dual VEGFR-2 and EGFR inhibitors: apoptotic antiproliferative and immunomodulatory evaluations” (RSC Advances, 2025).
